Results as given in publication PMC11392934 (Nature Communications, 2024).

Assays:
[1] = target: T1, MleS (Lactococcus lactis, UniProt Q48662); assay: initial H+ consumption rate by pH microelectrode; format: biochemical; conditions: product inhibition; 5 mM L-malate, pH 7, 30 °C
T1 sequence (Q48662 1-540): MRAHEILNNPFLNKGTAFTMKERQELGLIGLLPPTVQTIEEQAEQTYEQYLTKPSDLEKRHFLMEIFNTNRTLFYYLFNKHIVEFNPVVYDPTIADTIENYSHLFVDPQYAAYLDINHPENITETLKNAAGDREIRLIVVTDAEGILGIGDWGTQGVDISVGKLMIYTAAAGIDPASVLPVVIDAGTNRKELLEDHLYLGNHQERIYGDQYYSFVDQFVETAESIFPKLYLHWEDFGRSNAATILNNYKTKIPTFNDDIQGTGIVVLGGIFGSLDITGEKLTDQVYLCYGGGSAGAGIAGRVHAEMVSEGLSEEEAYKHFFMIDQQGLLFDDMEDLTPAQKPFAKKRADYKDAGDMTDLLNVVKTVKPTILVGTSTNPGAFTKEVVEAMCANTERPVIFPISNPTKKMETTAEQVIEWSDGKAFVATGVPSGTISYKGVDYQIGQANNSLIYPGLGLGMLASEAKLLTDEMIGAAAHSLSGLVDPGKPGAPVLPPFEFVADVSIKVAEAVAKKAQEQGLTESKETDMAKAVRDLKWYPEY

[2] = target: T2, LacY (Escherichia coli, UniProt P02920); assay: inhibition of lactose-dependent NADPH production in MleP-LacY vesicles; format: biochemical; conditions: 100 µM D-lactose, pH 7, 30 °C; competitive; coupled read-out
T2 sequence (P02920 1-417): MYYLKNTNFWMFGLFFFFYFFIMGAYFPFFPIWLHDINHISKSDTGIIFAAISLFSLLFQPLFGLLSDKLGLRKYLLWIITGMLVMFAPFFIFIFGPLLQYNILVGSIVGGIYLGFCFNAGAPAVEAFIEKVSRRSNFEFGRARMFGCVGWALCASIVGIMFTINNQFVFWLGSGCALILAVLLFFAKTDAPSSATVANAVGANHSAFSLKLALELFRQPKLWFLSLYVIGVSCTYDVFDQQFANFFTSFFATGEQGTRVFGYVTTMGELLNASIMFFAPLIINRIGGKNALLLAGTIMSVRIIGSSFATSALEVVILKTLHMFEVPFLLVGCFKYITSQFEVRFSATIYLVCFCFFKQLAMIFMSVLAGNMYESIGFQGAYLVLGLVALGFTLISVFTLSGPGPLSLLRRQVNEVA

% reduction of initial rate at 25 mM [1]	Structure (SMILES)	effect at 20 mM [2]
50%	C[C@H](O)C(=O)O [L-lactate]	
	CS[C@@H]1O[C@H](CO)[C@H](O)[C@H](O)[C@H]1O [methyl-β-D-thiogalactoside]	methyl-β-D-thiogalactoside (TMG) and thiodigalactoside (TDG)
	OC[C@H]1O[C@@H](S[C@@H]2O[C@H](CO)[C@H](O)[C@H](O)[C@H]2O)[C@H](O)[C@@H](O)[C@H]1O [thiodigalactoside]	NADPH fluorescence is reduced in the presence non-hydrolysable substrates
